Experimental data from PubChem BioAssay (NCI).
Values joined by “and” are separate entries in the source; they are usually repeats but may differ in a detail not shown here. Equal values may be shown once.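 Results reflect a 48-hour exposure of cells in 96-well plates to compound at five concentrations. TGI is the concentration that stops growth completely.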

Columns and labels:
Assay in all cases: DTP human tumour cell line panel, 48 h
[1] = test system: HL-60(TB) leukemia
[2] = test system: HT29 colon
[3] = test system: SW-620 colon
[4] = test system: SNB-78 CNS
[5] = test system: SN12C renal
[6] = test system: SK-MEL-2 melanoma
[7] = test system: HOP-18 NSCLC
[8] = test system: IGROV1 ovarian
[9] = test system: OVCAR-4 ovarian
[10] = test system: NCI-H460 lung
[11] = test system: HOP-62 NSCLC

Q: How did the TGI [1] turn out when CC(=O)NC1C(OCc2ccccc2)OC(CO)C(O)C1OC(C)C(=O)N[C@@H](C)C(=O)N[C@H](CCC(=O)OCCNc1c2ccccc2nc2cccc([N+](=O)[O-])c12)C(N)=O (some centres not stated) was run?
A: 0.0564 µM

Q: What about the TGI [2] of the same compound?
A: 0.00443 µM

Q: And the TGI [3]?
A: 0.00283 µM

Q: What about the TGI [4] of the same compound?
A: 0.0809 µM

Q: And the TGI [5]?
A: 0.0313 µM

Q: What about the TGI [6] of the same compound?
A: 0.00414 µM

Q: And the TGI [7]?
A: 0.00289 µM and 0.00803 µM

Q: What about the TGI [8] of the same compound?
A: 0.0679 µM and 0.022 µM

Q: What about the TGI [9] of the same compound?
A: 0.0116 µM

Q: What about the TGI [10] of the same compound?
A: 0.00137 µM

Q: With CCCCC(C)C(OC(=O)CC(CC(=O)O)C(=O)O)C(CC(C)CC(O)CCCCC(O)CC(O)C(C)N)OC(=O)CC(CC(=O)O)C(=O)O (configuration not stated) as the compound, how does the TGI [1] read?
A: > 100 µM

Q: And the TGI [2]?
A: > 100 µM

Q: What about the TGI [3] of the same compound?
A: > 100 µM

Q: And the TGI [5]?
A: > 100 µM

Q: And the TGI [6]?
A: > 100 µM

Q: What about the TGI [7] of the same compound?
A: > 100 µM

Q: What about the TGI [8] of the same compound?
A: > 100 µM

Q: And the TGI [9]?
A: > 100 µM

Q: What about the TGI [11] of the same compound?
A: > 100 µM

Q: What about the TGI [10] of the same compound?
A: > 100 µM

Q: Which results are given for ON(Cc1ccccc1)C(=S)c1ccccc1?
A: TGI [1]: 7.75 µM; TGI [2]: > 100 µM; TGI [3]: > 100 µM; TGI [4]: > 100 µM; TGI [5]: > 100 µM; TGI [6]: > 100 µM; TGI [7]: > 100 µM; TGI [8]: > 100 µM; TGI [9]: > 100 µM; TGI [11]: 42.9 µM; TGI [10]: 22.3 µM

Q: For COC(=O)C1=C(c2ccc(OC)c(OC)c2)OC(c2cc(OC)c(OC)c(OC)c2)C1 (configuration not stated), which TGI [2] is on record?
A: > 100 µM

Q: What about the TGI [3] of the same compound?
A: > 100 µM

Q: What about the TGI [4] of the same compound?
A: 68.5 µM

Q: And the TGI [5]?
A: > 100 µM

Q: What about the TGI [6] of the same compound?
A: > 100 µM

Q: And the TGI [7]?
A: > 100 µM

Q: And the TGI [8]?
A: > 100 µM

Q: What about the TGI [9] of the same compound?
A: > 100 µM

Q: What about the TGI [11] of the same compound?
A: 47.4 µM

Q: What about the TGI [10] of the same compound?
A: > 100 µM

Q: For Nc1c(O)cc(N=C2C(=O)C=CC=C2C(=O)O)c(O)c1C(=O)O, which TGI [1] is on record?
A: > 100 µM

Q: And the TGI [2]?
A: > 100 µM

Q: And the TGI [3]?
A: > 100 µM

Q: And the TGI [4]?
A: > 100 µM

Q: And the TGI [5]?
A: > 100 µM

Q: And the TGI [6]?
A: > 91.2 µM

Q: What about the TGI [7] of the same compound?
A: > 100 µM

Q: And the TGI [8]?
A: > 100 µM

Q: What about the TGI [9] of the same compound?
A: > 100 µM

Q: And the TGI [11]?
A: > 100 µM

Q: Which TGI [1] does the source give for O=C(CC1(O)C(=O)Nc2ccc(Br)cc21)c1ccc(Cl)cc1Cl (configuration not stated) here?
A: 48.3 µM

Q: And the TGI [2]?
A: > 100 µM

Q: And the TGI [3]?
A: > 100 µM

Q: And the TGI [4]?
A: > 100 µM

Q: What about the TGI [5] of the same compound?
A: > 100 µM

Q: And the TGI [6]?
A: > 100 µM

Q: And the TGI [8]?
A: > 100 µM

Q: And the TGI [9]?
A: > 100 µM

Q: And the TGI [11]?
A: > 100 µM

Q: And the TGI [10]?
A: > 100 µM

Q: What does the source list for S=c1nc(COc2ccc(Cl)cc2Cl)[nH][nH]1?
A: TGI [1]: 88.8 µM; TGI [2]: > 100 µM; TGI [3]: > 100 µM; TGI [4]: > 100 µM; TGI [5]: > 100 µM; TGI [6]: > 100 µM; TGI [8]: > 100 µM; TGI [9]: > 100 µM; TGI [10]: > 100 µM

Q: With CCN(CC)c1ccc(N=Nc2ccc([N+](=O)[O-])cc2OC(=O)/C=C/c2ccccc2)c(OC(=O)/C=C/c2ccccc2)c1 as the compound, how does the TGI [1] read?
A: > 44 µM

Q: And the TGI [2]?
A: > 100 µM

Q: What about the TGI [3] of the same compound?
A: > 100 µM

Q: And the TGI [4]?
A: > 100 µM

Q: And the TGI [5]?
A: > 100 µM

Q: And the TGI [6]?
A: > 100 µM

Q: And the TGI [7]?
A: 9.04 µM

Q: And the TGI [8]?
A: > 100 µM

Q: What about the TGI [9] of the same compound?
A: > 100 µM

Q: And the TGI [11]?
A: > 100 µM

Q: And the TGI [10]?
A: 11.1 µM

Q: For CCOc1ccc2c(c1)[n+]([O-])c(-c1ccc(Br)cc1)c(N)[n+]2[O-], which TGI [1] is on record?
A: > 100 µM

Q: What about the TGI [2] of the same compound?
A: > 100 µM

Q: What about the TGI [3] of the same compound?
A: > 100 µM

Q: And the TGI [4]?
A: > 100 µM

Q: What about the TGI [5] of the same compound?
A: > 100 µM

Q: And the TGI [6]?
A: > 100 µM

Q: And the TGI [7]?
A: > 100 µM

Q: What about the TGI [8] of the same compound?
A: > 100 µM

Q: What about the TGI [9] of the same compound?
A: > 100 µM

Q: What about the TGI [11] of the same compound?
A: > 100 µM

Q: What about the TGI [10] of the same compound?
A: > 100 µM

Q: How did the TGI [1] turn out when O=C(CCC(=O)Nc1ccc(Cl)c(Cl)c1)CC(=O)c1ccc(F)cc1 was run?
A: > 100 µM

Q: And the TGI [2]?
A: > 100 µM

Q: What about the TGI [3] of the same compound?
A: > 100 µM

Q: What about the TGI [4] of the same compound?
A: > 100 µM

Q: What about the TGI [5] of the same compound?
A: > 100 µM

Q: And the TGI [7]?
A: > 100 µM

Q: What about the TGI [8] of the same compound?
A: > 100 µM

Q: And the TGI [9]?
A: > 100 µM

Q: And the TGI [11]?
A: > 100 µM

Q: And the TGI [10]?
A: > 100 µM

Q: For CN(C)C(=Nc1nc(=[N+](C)C)ss1)N(C)C, which TGI [1] is on record?
A: > 100 µM

Q: What about the TGI [2] of the same compound?
A: > 100 µM

Q: And the TGI [3]?
A: > 100 µM

Q: What about the TGI [5] of the same compound?
A: > 100 µM

Q: And the TGI [6]?
A: > 100 µM

Q: And the TGI [7]?
A: > 100 µM

Q: What about the TGI [8] of the same compound?
A: > 100 µM

Q: And the TGI [9]?
A: > 100 µM

Q: And the TGI [11]?
A: > 100 µM

Q: And the TGI [10]?
A: > 100 µM
